In the supplement of paper PMC11208160:

Assay: recombinant UMI read abundance after kanamycin selection (control-corrected) (log10(CPM+1)); higher = more efficient recombination; extreme values may be limits of the assay; sequences stand for … in AGTGCAGAGAAAATCGGCCAGTTTTCTCTGCCTGCAGTCCGCATGCCGTGGGACCCCTTGGGTTCTAACCTGTTGCCTAGATTTATGCAGCGGACTGCCTTTCTCCCAAAGTGATAAACCGG…AGGTTGGTTTCACT; site = the 11-nt donor
Summary of the method: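 Two replicates each of selected and unselected plating were used in this pooled Escherichia coli screen of donor and donor-binding-loop pairs for the IS621 bridge recombinase. Selection was with IPTG (0.07 mM) and kanamycin. Counts of recombinant UMIs, amplified across the donor–target junction, were converted to CPM, averaged, scaled by control-derived factors and reported as log10(CPM+1).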
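Note: IS621 bridge recombinase in Escherichia coli cells against a fixed T5 target plasmid.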

| Sequence | recombinant UMI read abundance (log10) |
| --- | --- |
| GAAAACCCATGGACCGGTTTTCCCGGTAATCCGTATTTGAT (site GAAAACCCTAT) | 0 |
| GAAAAGGCATGGACCGGTTTTCCCGGTAATCCGTATTTGTT (site GAAAAGGCTAA) | 2.58 |
| GAAAATGCATGGACCGGTTTTCCCGGTAATCCGTATTTGAG (site GAAAATGCTCT) | 2.25 |
| GAAACCACATGGACCGGTTTTCCCGGTAATCCGTATTTGGT (site GAAACCACTAC) | 0.48 |
| GAAAGTCCATGGACCGGTTTTCCCGGTAATCCGTATTTGGA (site GAAAGTCCTTC) | 0.0128 |
| GAACATACATGGACCGGTTTTCCCGGTAATCCGTATTTGGG (site GAACATACTCC) | 0.24 |
| GAACGTACATGGACCGGTTTTCCCGGTAATCCGTATTTGCT (site GAACGTACTAG) | 2.26 |
| GAAGATACATGGACCGGTTTTCCCGGTAATCCGTATTTGTT (site GAAGATACTAA) | 2.29 |
| GAAGATACATGGACCGGTTTTCCCGGTAATCCGTATTTGTT (site GAAGATCCTAA) | 0.00569 |
| GAAGATACATGGACCGGTTTTCCCGGTAATCCGTATTTGTT (site GAAGATGCTAA) | 0.602 |
| GAAGATACATGGACCGGTTTTCCCGGTAATCCGTATTTGTT (site GAAGATTCTAA) | 0 |
| GAAGATTCATGGACCGGTTTTCCCGGTAATCCGTATTTGTT (site AAAGATTCTAA) | 1.45 |
| GAAGATTCATGGACCGGTTTTCCCGGTAATCCGTATTTGTT (site CAAGATTCTAA) | 1.81 |
| GAAGATTCATGGACCGGTTTTCCCGGTAATCCGTATTTGTT (site GAAAATTCTAA) | 0.371 |
| GAAGATTCATGGACCGGTTTTCCCGGTAATCCGTATTTGTT (site GAACATTCTAA) | 0 |
| GAAGATTCATGGACCGGTTTTCCCGGTAATCCGTATTTGTT (site GAAGAATCTAA) | 1.3 |
| GAAGATTCATGGACCGGTTTTCCCGGTAATCCGTATTTGTT (site GAAGACTCTAA) | 1.24 |
| GAAGATTCATGGACCGGTTTTCCCGGTAATCCGTATTTGTT (site GAAGAGTCTAA) | 0.0122 |
| GAAGATTCATGGACCGGTTTTCCCGGTAATCCGTATTTGTT (site GAAGATACTAA) | 0.46 |
| GAAGATTCATGGACCGGTTTTCCCGGTAATCCGTATTTGTT (site GAAGATCCTAA) | 1.92 |
| GAAGATTCATGGACCGGTTTTCCCGGTAATCCGTATTTGTT (site GAAGATGCTAA) | 0.0075 |
| GAAGATTCATGGACCGGTTTTCCCGGTAATCCGTATTTGTT (site GAAGATTCTAA) | 2.86 |
| GAAGATTCATGGACCGGTTTTCCCGGTAATCCGTATTTGTT (site GAAGATTCTAC) | 0.242 |
| GAAGATTCATGGACCGGTTTTCCCGGTAATCCGTATTTGTT (site GAAGATTCTAG) | 0.838 |
| GAAGATTCATGGACCGGTTTTCCCGGTAATCCGTATTTGTT (site GAAGATTCTAT) | 1.5 |

| Sequence | recombinant UMI read abundance (log10) |
| --- | --- |
| GAAGATTCATGGACCGGTTTTCCCGGTAATCCGTATTTGTT (site GAAGATTCTCA) | 0.868 |
| GAAGATTCATGGACCGGTTTTCCCGGTAATCCGTATTTGTT (site GAAGATTCTGA) | 0 |
| GAAGATTCATGGACCGGTTTTCCCGGTAATCCGTATTTGTT (site GAAGATTCTTA) | 1.2 |
| GAAGATTCATGGACCGGTTTTCCCGGTAATCCGTATTTGTT (site GAAGCTTCTAA) | 0.0109 |
| GAAGATTCATGGACCGGTTTTCCCGGTAATCCGTATTTGTT (site GAAGGTTCTAA) | 0.0539 |
| GAAGATTCATGGACCGGTTTTCCCGGTAATCCGTATTTGTT (site GAAGTTTCTAA) | 0 |
| GAAGATTCATGGACCGGTTTTCCCGGTAATCCGTATTTGTT (site GAATATTCTAA) | 0 |
| GAAGATTCATGGACCGGTTTTCCCGGTAATCCGTATTTGTT (site GACGATTCTAA) | 0 |
| GAAGATTCATGGACCGGTTTTCCCGGTAATCCGTATTTGTT (site GAGGATTCTAA) | 0 |
| GAAGATTCATGGACCGGTTTTCCCGGTAATCCGTATTTGTT (site GATGATTCTAA) | 0.296 |
| GAAGATTCATGGACCGGTTTTCCCGGTAATCCGTATTTGTT (site GCAGATTCTAA) | 0.013 |
| GAAGATTCATGGACCGGTTTTCCCGGTAATCCGTATTTGTT (site GGAGATTCTAA) | 0.379 |
| GAAGATTCATGGACCGGTTTTCCCGGTAATCCGTATTTGTT (site GTAGATTCTAA) | 0.39 |
| GAAGATTCATGGACCGGTTTTCCCGGTAATCCGTATTTGTT (site TAAGATTCTAA) | 2.36 |
| GAAGCAACATGGACCGGTTTTCCCGGTAATCCGTATTTGCC (site GAAGCAACTGG) | 2.09 |
| GAAGCTTCATGGACCGGTTTTCCCGGTAATCCGTATTTGTT (site GAAGATTCTAA) | 0 |
| GAAGCTTCATGGACCGGTTTTCCCGGTAATCCGTATTTGTT (site GAAGCTTCTAA) | 1.74 |
| GAAGCTTCATGGACCGGTTTTCCCGGTAATCCGTATTTGTT (site GAAGGTTCTAA) | 0 |
| GAAGCTTCATGGACCGGTTTTCCCGGTAATCCGTATTTGTT (site GAAGTTTCTAA) | 0 |
| GAAGTATCATGGACCGGTTTTCCCGGTAATCCGTATTTGCA (site ACAGTATCTTG) | 1.54 |
| GAAGTATCATGGACCGGTTTTCCCGGTAATCCGTATTTGCA (site GAAGTATCTTG) | 2.6 |
| GAATATGCATGGACCGGTTTTCCCGGTAATCCGTATTTGAA (site GAATATGCTTT) | 2.09 |
| GAATCCGCATGGACCGGTTTTCCCGGTAATCCGTATTTGTC (site GAATCCGCTGA) | 2.15 |
| GAATCTACATGGACCGGTTTTCCCGGTAATCCGTATTTGCG (site GAATCTACTCG) | 1.04 |
| GAATGAGCATGGACCGGTTTTCCCGGTAATCCGTATTTGGA (site GAATGAGCTTC) | 1.28 |

| Sequence | recombinant UMI read abundance (log10) |
| --- | --- |
| GAATGCCCATGGACCGGTTTTCCCGGTAATCCGTATTTGCA (site GAATGACCTTG) | 0 |
| GAATGCCCATGGACCGGTTTTCCCGGTAATCCGTATTTGCA (site GAATGCCCTTG) | 1.25 |
| GAATGCCCATGGACCGGTTTTCCCGGTAATCCGTATTTGCA (site GAATGGCCTTG) | 0 |
| GAATGCCCATGGACCGGTTTTCCCGGTAATCCGTATTTGCA (site GAATGTCCTTG) | 0 |
| GAATGTCCATGGACCGGTTTTCCCGGTAATCCGTATTTGCA (site GAATGACCTTG) | 0 |
| GAATGTCCATGGACCGGTTTTCCCGGTAATCCGTATTTGCA (site GAATGCCCTTG) | 0 |
| GAATGTCCATGGACCGGTTTTCCCGGTAATCCGTATTTGCA (site GAATGGCCTTG) | 0 |
| GAATGTCCATGGACCGGTTTTCCCGGTAATCCGTATTTGCA (site GAATGTCCTTG) | 1.28 |
| GAATTCCCATGGACCGGTTTTCCCGGTAATCCGTATTTGCT (site AAATTCCCTAG) | 0 |
| GAATTCCCATGGACCGGTTTTCCCGGTAATCCGTATTTGCT (site CAATTCCCTAG) | 0.484 |
| GAATTCCCATGGACCGGTTTTCCCGGTAATCCGTATTTGCT (site GAATTCCCTAG) | 0.671 |
| GAATTCCCATGGACCGGTTTTCCCGGTAATCCGTATTTGCT (site TAATTCCCTAG) | 0.902 |
| GACAAACCATGGACCGGTTTTCCCGGTAATCCGTATTTGGC (site GACAAACCTAC) | 0 |
| GACAAACCATGGACCGGTTTTCCCGGTAATCCGTATTTGGC (site GACAAACCTCC) | 0 |
| GACAAACCATGGACCGGTTTTCCCGGTAATCCGTATTTGGC (site GACAAACCTGC) | 0 |
| GACAAACCATGGACCGGTTTTCCCGGTAATCCGTATTTGGC (site GACAAACCTTC) | 0 |
| GACAAAGCATGGACCGGTTTTCCCGGTAATCCGTATTTGGT (site GACAAAACTAC) | 0.00355 |
| GACAAAGCATGGACCGGTTTTCCCGGTAATCCGTATTTGGT (site GACAAACCTAC) | 0 |
| GACAAAGCATGGACCGGTTTTCCCGGTAATCCGTATTTGGT (site GACAAAGCTAC) | 1.13 |
| GACAAAGCATGGACCGGTTTTCCCGGTAATCCGTATTTGGT (site GACAAATCTAC) | 0 |
| GACAAGACATGGACCGGTTTTCCCGGTAATCCGTATTTGTG (site GACAAGACTCA) | 1.73 |
| GACAATACATGGACCGGTTTTCCCGGTAATCCGTATTTGGC (site GACAATACTGC) | 1.59 |
| GACACGCCATGGACCGGTTTTCCCGGTAATCCGTATTTGTA (site GACACGCCTTA) | 0.0256 |
| GACACGCCATGGACCGGTTTTCCCGGTAATCCGTATTTGTA (site GCCACGCCTTA) | 0.176 |
| GACACGCCATGGACCGGTTTTCCCGGTAATCCGTATTTGTA (site GGCACGCCTTA) | 0.00761 |
